Reference: PMC4747340, “A new class of small molecule estrogen receptor-alpha antagonists that overcome anti-estrogen resistance” (Oncotarget, 2015)
“And” between values parts separate entries of the source, which are not always exact repeats. Equal values may be shown once. Read-outs that look alike come from different tables or passages of the source.

Assays:
ER/ERE complex = molecular target: T1, ER/ERE complex (Homo sapiens, UniProt P03372); experiment: EMSA and supershift assays of ER binding to consensus ERE, MCF-7 nuclear extracts; type: biochemical; conditions: for ER/ERE complex in EMSA, compound added directly to nuclear extracts: 1-5 μM added to MCF-7 nuclear extracts, compared with pre-incubation of cells; for interaction of ER with a model ERE oligonucleotide (EMSA, supershift): MCF-7 cells
T1 construct: MCF-7 cells in 24-well dishes were transfected overnight with the ERE-TK-Luc reporter plasmid; endogenous in cells; host or cells: MCF-7
T1 sequence (P03372 1-595): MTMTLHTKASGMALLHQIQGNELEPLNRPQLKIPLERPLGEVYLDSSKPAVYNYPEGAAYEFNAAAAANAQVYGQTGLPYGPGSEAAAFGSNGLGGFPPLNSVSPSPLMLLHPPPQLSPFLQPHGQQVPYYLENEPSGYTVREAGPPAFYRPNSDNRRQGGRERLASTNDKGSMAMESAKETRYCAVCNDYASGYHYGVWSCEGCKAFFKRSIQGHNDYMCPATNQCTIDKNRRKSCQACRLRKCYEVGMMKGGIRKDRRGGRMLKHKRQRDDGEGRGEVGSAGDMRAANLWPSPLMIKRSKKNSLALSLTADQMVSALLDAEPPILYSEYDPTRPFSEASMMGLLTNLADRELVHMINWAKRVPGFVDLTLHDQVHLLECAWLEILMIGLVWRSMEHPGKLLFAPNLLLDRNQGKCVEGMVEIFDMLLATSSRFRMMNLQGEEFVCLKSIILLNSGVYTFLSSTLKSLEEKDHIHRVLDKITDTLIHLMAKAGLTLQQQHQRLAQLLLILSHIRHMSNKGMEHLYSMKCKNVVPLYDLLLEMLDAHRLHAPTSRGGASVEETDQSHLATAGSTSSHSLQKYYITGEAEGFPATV
Method: After the 24-hr incubation, the cells were harvested, nuclear extracts were prepared, and the extracts were reacted with labeled “hot” ERE and an excess of unlabeled “cold” ERE, as indicated, prior to electrophoresis. In panel B, the experiment was performed similarly except that an anti-ER antibody was added to generate a “supershift”. C., D. Experiments were performed similarly to those above, except that different concentrations of compound (as indicated) were added directly to the reaction mixture containing nuclear extract and were not pre-incubated with whole cells. […] E., F. These experiments were performed similarly to those in C and D, except that anti-ER antibody was added to the reaction mixture to reveal “supershifted” bands. […] The data shown in each panel are representative of three independent experiments.
Double-stranded oligonucleotides containing a consensus ERE were obtained from Santa Cruz Biotechnology (sc-2858). Sequences of the oligonucleotides were: sense 5′-[…]-3′ and antisense: 3′-[…]-5′. Oligonucleotides were 3′-end-labeled using a Biotin Kit (Thermo Scientific, Rockford, IL). DNA binding reactions were carried out using nuclear extracts of MCF-7 cells that were treated ± E2 (10 nM) and ± the indicated compound for 24-hr. Treated cells were harvested and nuclear extracts were prepared using the NE-PER Nuclear and Cytoplasmic Extraction Reagents (Thermo Scientific). Aliquots of nuclear extract protein (2 μg) were incubated with gel-shift binding buffer (LightShift Chemiluminescent EMSA Kit, Thermo Scientific) for 30 min at 25°C. After incubation, 40 fmol of biotin-labeled ERE-containing oligonucleotides were added, and the mixture was re-incubated for 30 min at 25°C. Reaction products were loaded electrophoresed on a 6% DNA retardation gel (Invitrogen) and transferred onto a nylon membrane. Biotin-labeled DNA was detected using the Chemiluminescent Nucleic Acid Detection Module (Thermo Scientific). To test the specificity of binding, a 40-fold excess of unlabeled (“cold”) oligonucleotide was added to one of the reactions along with the biotin-labeled (“hot”) oligonucleotide. Note: In some experiments, the compound was added to the reaction mixture after the nuclear extract was prepared. Supershift assays were performed as above, except that before addition of the hot ERE oligonucleotide, nuclear extracts were incubated with 2-μg of anti-ER IgG (rabbit polyclonal, HC-20, Santa Cruz) for 30 min at 25°C.

cathepsin D [1] = experiment: Western blotting of cathepsin D (E2/ER-regulated gene) in MCF-7 cells; type: cell-based, human; conditions: for E2-stimulated expression of cathepsin D: MCF-7, E2 10 nM, 24 hr; for cathepsin D levels, compound alone: MCF-7, no E2, 24 hr
Method: (§1) MCF-7 cells in DMEM plus 5% CSS were subjected to the indicated treatment(s) for 24-hr and then harvested for Western blotting to detect cathepsin D or actin (control for loading and transfer). B., D. LCC9 cells were treated with vehicle only (DMSO) or the indicated compound for 24-hr and then harvested for Western blotting for cathepsin D and actin. The data shown in each panel are representative of three independent experiments.
(§2) After the indicated cell treatment(s), the cells were harvested, and whole-cell lysates were prepared using RIPA buffer (Santa Cruz). Equal aliquots of whole-cell protein (either 100 μg unprecipitated whole-cell lysate or one half of the precipitated protein from 500-μg whole-cell lysate) were electrophoresed on 4-12% SDS-polyacrylamide gradient gels, transferred to nitrocellulose membranes (Millipore, Bedford, MA), and blotted using primary antibodies against BRCA1 (C-20, rabbit polyclonal, 1:200 dilution; Santa Cruz), cathepsin D (R-20, goat polyclonal, 1:300; Santa Cruz), ER (F10, mouse monoclonal, 1:500; Santa Cruz), or actin (goat polyclonal, sc-1615, 1:400; Santa Cruz). The membranes were blotted with the appropriate secondary antibodies (1:1000; Santa Cruz), and the blotted proteins were visualized using an electrochemiluminescence detection system (Amersham Biosciences), with colored markers (Bio-Rad Laboratories, Hercules, CA) as molecular size standards.

cathepsin D [2] = experiment: Western blotting of cathepsin D in LCC9 cells; type: cell-based, human; conditions: LCC9, 24-hr exposure
Method: as §1
as §2, with “The membranes were blotted with the appropriate secondary antibodies (1:1000; Santa Cruz), and the blotted proteins were visualized using an electrochemiluminescence detection system (Amersham Biosciences), with colored markers (Bio-Rad Laboratories, Hercules, CA) as molecular size standards.” left out

[3] = molecular target: T2, estrogen receptor-alpha (ER) (Homo sapiens, UniProt P03372); experiment: ER activity, ERE-TK-Luc reporter, in MCF-7 cells; type: cell-based; set-up: MCF-7 cells in 24-well dishes were transfected overnight with the ERE-TK-Luc reporter plasmid; endogenous in cells; host or cells: MCF-7; conditions: for IC50: read-out: IC50 for inhibition of E2-stimulated ER activity
T2 sequence (P03372 1-595): T1 sequence (P03372 1-595)
Method: For MCF-7, luciferase activity is expressed as a fold-change relative to the no E2 control. For LCC9, luciferase activity is expressed relative to the control without the reporter present. Values plotted are means ± SEMs of four replicate wells. The data shown in each panel are representative of three independent experiments.
The cells were then treated ± 17β-estradiol (E2, 10 nM) and with the indicated compound (@ 1 μM or 20 μM) or vehicle only (DMSO) for 24 hr and assayed for luciferase activity. Luciferase activity is expressed as a fold-change relative to the no E2 control. The data shown are representative of three independent experiments.
Subconfluent cells in 24-well dishes were transfected overnight with 0.25 μg of each indicated vector plus the ERE-TK-Luc reporter in serum-free DMEM containing Lipofectamine2000 (Life Technologies, Washington, DC). Total transfected DNA was kept constant by addition of control vector. The cells were washed, incubated in phenol red-free DMEM containing 5% charcoal-stripped serum (obtained from the Tissue Culture Shared Resource) (0.2 ml/well) ± E2 (10 nM) ± the indicated compound for 24-hr, and harvested for luciferase assays. For each assay condition was tested in quadrupicate. To monitor the transfection efficiency, cultures were co-transfected with plasmid pRSV-β-gal (Promega, Madison, WI) to visualize transfected cells by X-gal staining.

## O=C(c1cc(Br)ccc1O)c1cc(Br)ccc1O [4631-P/1]
ER/ERE complex
  ER/ERE complex in EMSA, compound added directly to nuclear extracts: greater effect
  interaction of ER with a model ERE oligonucleotide (EMSA, supershift): disrupt the interaction of ER with a model ERE oligonucleotide
ER/ERE complex; MCF-7 pre-incubated with E2 10 nM and compound 1 or 20 μM for 24 hr
  ER/ERE complex in EMSA, cells pre-incubated with compound: dose-dependent reduction of the ER/ERE complex
Cathepsin D [1]
  E2-stimulated expression of cathepsin D: blocked E2-stimulated expression of cathepsin D
  cathepsin D levels, compound alone: little or no effect
Cathepsin D [2]
  constitutive cathepsin D levels in LCC9: decreased
[3]; MCF7, MCF-7, E2 10 nM, compound 1 μM, 24 hr, read-out: inhibition of E2-stimulated ER activity at 1 μM
  inhibition at 1 µM: ≥ 50%
[3]; MCF-7, E2 10 nM, 24 hr
  IC50: ≤ 1000 nM

## O=C(CC(c1ccccc1)N1CCCCC1)c1ccccc1 (stereo not drawn) [35446-L/1, 1,3-diphenyl-3-(piperidin-1-yl)propan-1-one]
ER/ERE complex
  ER/ERE complex in EMSA, compound added directly to nuclear extracts: greater effect
  interaction of ER with a model ERE oligonucleotide (EMSA, supershift): disrupt the interaction of ER with a model ERE oligonucleotide
Cathepsin D [1]
  E2-stimulated expression of cathepsin D: blocked E2-stimulated expression of cathepsin D
  cathepsin D levels, compound alone: little or no effect
Cathepsin D [2]
  constitutive cathepsin D levels in LCC9: decreased
[3]; MCF7, read-out: inhibition of E2-stimulated ER activity at 1 μM
  inhibition at 1 µM: ≥ 50%
[3]; MCF-7, E2 10 nM, 24 hr
  IC50: ≤ 1000 nM and 800 nM
